US9523100B2, “Pesticidal compositions and related methods” (DOW AGROSCIENCES LLC, priority 2013, dated 2016)

Assays:
[1] = tested on: Green Peach Aphid (GPA) (Myzus persicae) (MYZUPE); assay: Bioassay for Green Peach Aphid (GPA), foliar spray on cabbage seedlings; format: in vivo; conditions: 72 h, 200 ppm foliar spray on cabbage seedlings, graded after three days, Abbott corrected % control, read-out: GPA 200 ppm, % Control (or Mortality) rating
In short: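 Foliar spray test: 200 ppm solutions (0.025% Tween 20 in water, 20% acetone/methanol) applied to both leaf sides of aphid-infested cabbage seedlings. After 3 days at about 25° C, live aphids per plant were counted; control corrected to solvent check via Abbott's formula.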

[2] = tested on: Sweetpotato Whitefly-Crawler (WF) (Bemisia tabaci) (BEMITA); assay: Insecticidal test for Sweetpotato Whitefly-Crawler (WF) in foliar spray assay on cotton plants; format: in vivo; conditions: 216 h, 200 ppm foliar spray on cotton plants, graded after 9 days, Abbott corrected % control, read-out: WF 200 ppm, % Control (or Mortality) rating
In short: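 Whitefly nymph control on egg-infested cotton (eggs laid 4–5 days pre-treatment), foliar spray at 200 ppm test compound. Live late-stage nymphs counted microscopically 9 days later at ~25 °C; control calculated by Abbott's formula relative to acetone-diluent-sprayed plants.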

SMILES | mortality at 200 ppm [1] [%] | mortality at 200 ppm [2] [%]
CCN(C(=O)CCCC1CN(CC2CC2(F)F)C1=O)c1cn(-c2cccnc2)nc1Cl (centres unmarked) [Compound F104, N-(3-Chloro-1-(pyridin-3-yl)-1H-pyrazol-4-yl)-4-(1-((2,2-difluorocyclopropyl)methyl)-2-oxoazetidin-3-yl)-N-ethylbutanamide] | 80 to 100 | 80 to 100
CCN(C(=O)CC/C(C)=N/O)c1cn(-c2cccnc2)nc1Cl [Compound F105, (E)-N-(3-chloro-1-(pyridin-3-yl)-1H-pyrazol-4-yl)-N-ethyl-4-(hydroxyimino) pentanamide] | 0 to 80 | 80 to 100
CCN(C(=O)CCC(=O)N1CCCC1)c1cn(-c2cccnc2)nc1Cl [Compound F106, N-(3-Chloro-1-(pyridin-3-yl)-1H-pyrazol-4-yl)-N-ethyl-4-oxo-4-(pyrrolidin-1-yl)butanamide] | 0 to 80 | 0 to 80
CN(C(=O)CCN1CCCC1=O)c1cn(-c2cccnc2)nc1Cl [Compound F107, N-(3-Chloro-1-(pyridin-3-yl)-1H-pyrazol-4-yl)-N-methyl-3-(2-oxopyrrolidin-1-yl)propanamide] | 80 to 100 | 80 to 100
CCN(C(=O)CCC(=O)N(C)CCC(F)(F)F)c1cn(-c2cccnc2)nc1Cl [Compound F108, N1-(3-chloro-1-(pyridin-3-yl)-1H-pyrazol-4-yl)-N1-ethyl-N4-methyl-N4-(3,3,3-trifluoropropyl)succinamide] | 80 to 100 | 80 to 100
CN(C(=O)[C@@H]1C=C[C@H](NC(=O)OC(C)(C)C)C1)c1cn(-c2cccnc2)nc1Cl [Compound F109, tert-butyl ((1R,4S)-4-((3-chloro-1-(pyridin-3-yl)-1H-pyrazol-4-yl)(methyl)carbamoyl)cyclopent-2-en-1-yl)carbamate] | 0 to 80 | 80 to 100
CCN(C(=O)C1CCN(C(=O)OC(C)(C)C)CC1)c1cn(-c2cccnc2)nc1Cl [Compound F110, tert-Butyl 44-(3-chloro-1-(pyridin-3-yl)-1H-pyrazol-4-yl)(ethylcarbamoyl) piperidine-1-carboxylate] | 80 to 100 | 80 to 100
CN(C(=O)CN1CCOC1=O)c1cn(-c2cccnc2)nc1Cl [Compound F111, N-(3-Chloro-1-(pyridin-3-yl)-1H-pyrazol-4-yl)-N-methyl-2-(2-oxooxazolidin-3-yl)acetamide] | 80 to 100 | 80 to 100
CCN(C(=O)CCNC(=O)C1CCN(C(C)=O)CC1)c1cn(-c2cccnc2)nc1Cl [Compound F112, 1-Acetyl-N-(3-((3-chloro-1-(pyridin-3-yl)-1H-pyrazol-4-yl)(ethyl)amino)-3-oxopropyl)piperidine-4-carboxamide] | 0 to 80 | 80 to 100
CCN(C(=O)CCNC(=O)C1(C)CC1(F)F)c1cn(-c2cccnc2)nc1Cl (centres unmarked) [Compound F113, N-(3-((3-chloro-1-(pyridin-3-yl)-1H-pyrazol-4-yl)(ethyl)amino)-3-oxopropyl)-2,2-difluoro-1-methylcyclopropanecarboxamide] | 80 to 100 | 80 to 100
CCN(C(=O)C(C)N(C)C(=O)N(C)C)c1cn(-c2cccnc2)nc1Cl (centres unmarked) [Compound F114, N-(3-Chloro-1-(pyridin-3-yl)-1H-pyrazol-4-yl)-N-ethyl-2-(1,3,3-trimethylureido)propanamide] | 80 to 100 | 80 to 100
CCN(C(=O)CCC(=O)NCc1ccncc1)c1cn(-c2cccnc2)nc1Cl [Compound F115, N1-(3-Chloro-1-(pyridin-3-yl)-1H-pyrazol-4-yl)-N1-ethyl-N4-(pyridin-4-ylmethyl)succinamide] | 0 to 80 | 80 to 100
CN(C(=O)[C@H]1C=C[C@@H](NC(=O)OC(C)(C)C)C1)c1cn(-c2cccnc2)nc1Cl [Compound F116, tert-Butyl ((1S,4R)-4-((3-chloro-1-(pyridin-3-yl)-1H-pyrazol-4-yl)(methyl)carbamoyl)cyclopent-2-en-1-yl)carbamate] | 0 to 80 | 80 to 100
CCN(C(=O)CC1CN(Cc2ccc(C(F)(F)F)nc2)C1=O)c1cn(-c2cccnc2)nc1Cl (centres unmarked) [Compound F117] | 80 to 100 | 80 to 100
CCN(C(=O)CCC(=O)N(C)Cc1ccc(F)cc1)c1cn(-c2cccnc2)nc1Cl [Compound F118, N1-(3-Chloro-1-(pyridin-3-yl)-1H-pyrazol-4-yl)-N1-ethyl-N4-(4-fluorobenzyl)-N4-methylsuccinamide] | 80 to 100 | 80 to 100
CCN(C(=O)CCC1CN(C)C1=O)c1cn(-c2cccnc2)nc1Cl (centres unmarked) [Compound F119, N-(3-Chloro-1-(pyridin-3-yl)-1H-pyrazol-4-yl)-N-ethyl-3-(1-methyl-2-oxoazetidin-3-yl)propanamide] | 80 to 100 | 80 to 100

SMILES | mortality at 200 ppm [1] [%] | mortality at 200 ppm [2] [%]
CCN(C(=O)CN(C)C(=O)CC(F)(F)F)c1cn(-c2cccnc2)nc1Cl [Compound F120, N-(2-((3-Chloro-1-(pyridin-3-yl)-1H-pyrazol-4-yl)(ethyl)amino)-2-oxoethyl)-3,3,3-trifluoro-N-methylpropanamide] | 80 to 100 | 80 to 100
CCN(C(=O)CCN(C)C(=O)N(C)C)c1cn(-c2cccnc2)nc1Cl [Compound F121, N-(3-Chloro-1-(pyridin-3-yl)-1H-pyrazol-4-yl)-N-ethyl-3-(1,3,3-trimethylureido)propanamide] | 80 to 100 | 80 to 100
CCN(C(=O)Cn1ccccc1=O)c1cn(-c2cccnc2)nc1Cl [Compound F122, N-(3-Chloro-1-(pyridin-3-yl)-1H-pyrazol-4-yl)-N-ethyl-2-(2-oxopyridin-1(2H)-yl)acetamide] | 0 to 80 | 80 to 100
CCN(C(=O)CN1CCCCCC1=O)c1cn(-c2cccnc2)nc1Cl [Compound F123, N-(3-Chloro-1-(pyridin-3-yl)-1H-pyrazol-4-yl)-N-ethyl-2-(2-oxoazepan-1-yl)acetamide] | 0 to 80 | 80 to 100
CCN(C(=O)CN1CCCC1=O)c1cn(-c2cccnc2)nc1Cl [Compound F124, N-(3-Chloro-1-(pyridin-3-yl)-1H-pyrazol-4-yl)-N-ethyl-2-(2-oxopyrrolidin-1-yl)acetamide] | 80 to 100 | 80 to 100
CCN(C(=O)CCN(CC(F)F)C(=O)CC1CC1)c1cn(-c2cccnc2)nc1Cl [Compound F125, N-(3-Chloro-1-(pyridin-3-yl)-1H-pyrazol-4-yl)-3-(2-cyclopropyl-N-(2,2-difluoroethyl)acetamido)-N-ethylpropanamide] | 80 to 100 | 80 to 100
CN(C(=O)[C@@H]1C=C[C@H](NC(=O)C(F)(F)F)C1)c1cn(-c2cccnc2)nc1Cl [Compound F126, (1S,4R)-N-(3-chloro-1-(pyridin-3-yl)-1H-pyrazol-4-yl)-N-methyl-4-(2,2,2-trifluoroacetamido)cyclopent-2-enecarboxamide] | 0 to 80 | 80 to 100
CCN(C(=O)CCCC1CN(Cc2ccc(C(F)(F)F)cc2)C1=O)c1cn(-c2cccnc2)nc1Cl (centres unmarked) [Compound F127, N-(3-Chloro-1-(pyridin-3-yl)-1H-pyrazol-4-yl)-N-ethyl-4-(2-oxo-1-(4-(trifluoromethyl)benzyl)azetidin-3-yl)butanamide] | 0 to 80 | 80 to 100
CCN(C(=O)CCC1CCN(C(=O)OC(C)(C)C)C1=O)c1cn(-c2cccnc2)nc1Cl (centres unmarked) [Compound F128, tert-butyl 3-(3-((3-chloro-1-(pyridin-3-yl)-1H-pyrazol-4-yl)(ethyl)amino)-3-oxopropyl)-2-oxopyrrolidine-1-carboxylate] | 80 to 100 | 80 to 100
CCN(C(=O)CCC1CN(Cc2ccc(C(F)(F)F)cc2)C1=O)c1cn(-c2cccnc2)nc1Cl (centres unmarked) [Compound F129] | 0 to 80 | 80 to 100
CCN(C(=O)CCC1CCNC1=O)c1cn(-c2cccnc2)nc1Cl (centres unmarked) [Compound F131, N-(3-chloro-1-(pyridin-3-yl)-1H-pyrazol-4-yl)-N-ethyl-3-(2-oxopyrrolidin-3-yl)propanamide] | 80 to 100 | 80 to 100
CCN(C(=O)C1CCN(C(=O)CC(F)(F)F)CC1)c1cn(-c2cccnc2)nc1Cl [Compound P16, N-(3-chloro-1-(pyridin-3-yl)-1H-pyrazol-4-yl)-N-ethyl-1-(3,3,3-trifluoropropanoyl) piperidine-4-carboxamide] | 80 to 100 | 0 to 80
CCN(C(=O)C1CCN(C(C)=O)C1)c1cn(-c2cccnc2)nc1Cl (centres unmarked) [Compound P20, 1-Acetyl-N-(3-chloro-1-(pyridin-3-yl)-1H-pyrazol-4-yl)-N-ethylpyrrolidine-3-carboxamide] | 80 to 100 | 0 to 80
CCN(C(=O)C1CCN(C(=O)CC(F)(F)F)C1)c1cn(-c2cccnc2)nc1Cl (centres unmarked) [Compound P21, N-(3-Chloro-1-(pyridin-3-yl)-1H-pyrazol-4-yl)-N-ethyl-1-(3,3,3-trifluoropropanoyl)pyrrolidine-3-carboxamide] | 80 to 100 | 0 to 80
CCN(C(=O)C1CN(C(C)=O)C1)c1cn(-c2cccnc2)nc1Cl [Compound P23, 1-Acetyl-N-(3-chloro-1-(pyridin-3-yl)-1H-pyrazol-4-yl)-N-ethylazetidine-3-carboxamide] | 80 to 100 | 80 to 100
